Results on 31 compounds are retold here after patent US10610520B2, “Heterocyclic compound” (Takeda Pharmaceutical Company Limited, priority 2016, dated 2020).

The target in this experiment is T1, His-hMAGL (recombinant polyhistidine tagged human MAGL protein) (Homo sapiens, UniProt Q99685).
T1 construct: made in house; host or cells: E. coli BL21(DE3)
T1 sequence (Q99685 1-303): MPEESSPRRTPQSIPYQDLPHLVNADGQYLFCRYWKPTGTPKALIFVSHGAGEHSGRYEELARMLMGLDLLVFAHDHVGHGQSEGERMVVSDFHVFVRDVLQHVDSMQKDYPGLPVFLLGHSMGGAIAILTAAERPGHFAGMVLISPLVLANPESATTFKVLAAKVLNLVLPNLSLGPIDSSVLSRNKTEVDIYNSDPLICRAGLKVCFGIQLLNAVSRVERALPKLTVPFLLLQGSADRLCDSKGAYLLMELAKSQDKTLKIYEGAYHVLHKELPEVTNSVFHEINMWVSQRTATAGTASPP
Kind of experiment: Measurement of MAGL inhibitory activity (arachidonic acid production from 2-arachidonylglycerol, RapidFire-mass spectrometry). The experiment is classed as biochemical. The note with it: MAGL inhibitory rate, test compound 10 μM, 60 min preincubation, 2-arachidonylglycerol substrate. Put shortly: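 Arachidonic acid formed was quantified by online solid-phase extraction and triple-quadrupole MS in negative SRM mode against a d8 internal standard. Reaction: recombinant His-hMAGL (7.5 ng/mL, pH 7.5 Tris buffer with Triton X-100 and BSA) plus 2-AG (5 μL of 150 μM stock) for 10 min at room temperature, quenched with 2% formic acid. Percent inhibition corrected for enzyme-free background.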

For the compound `O=C1CCC2(CN(C(=O)c3sc4cc(-c5cccc(OC(F)(F)F)c5)ccc4c3Cl)C2)N1` [Example 201, 2-((3-chloro-6-(3-(trifluoromethoxy)phenyl)-1-benzothiophen-2-yl)carbonyl)-2,5-diazaspiro[3.4]octan-6-one], the inhibition at 10 µM was 98%.

For `Cc1ccc(F)c(-c2ccc3c(Cl)c(C(=O)N4CC5(CCC(=O)N5)C4)sc3c2)c1` [Example 202, 2-((3-chloro-6-(2-fluoro-5-methylphenyl)-1-benzothiophen-2-yl)carbonyl)-2,5-diazaspiro[3.4]octan-6-one], the inhibition at 10 µM stood at 100%. Under `Cc1cccc(F)c1-c1ccc2c(Cl)c(C(=O)N3CC4(CCC(=O)N4)C3)sc2c1` [Example 203, 2-((3-chloro-6-(2-fluoro-6-methylphenyl)-1-benzothiophen-2-yl)carbonyl)-2,5-diazaspiro[3.4]octan-6-one] stands 101%; under `Cc1c(F)cccc1-c1ccc2c(Cl)c(C(=O)N3CC4(CCC(=O)N4)C3)sc2c1` [Example 204, 2-((3-chloro-6-(3-fluoro-2-methylphenyl)-1-benzothiophen-2-yl)carbonyl)-2,5-diazaspiro[3.4]octan-6-one], 100%.

Consider `Cc1ccc(F)cc1-c1ccc2c(Cl)c(C(=O)N3CC4(CCC(=O)N4)C3)sc2c1` [Example 205, 2-((3-chloro-6-(5-fluoro-2-methylphenyl)-1-benzothiophen-2-yl)carbonyl)-2,5-diazaspiro[3.4]octan-6-one], for which the inhibition at 10 µM came out at 101%. Under `Cc1ccc(-c2ccc3c(Cl)c(C(=O)N4CC5(CCC(=O)N5)C4)sc3c2)cc1F` [Example 206, 2-((3-chloro-6-(3-fluoro-4-methylphenyl)-1-benzothiophen-2-yl)carbonyl)-2,5-diazaspiro[3.4]octan-6-one] stands 96%; under `Cc1ccc(-c2ccc3c(Cl)c(C(=O)N4CC5(CCC(=O)N5)C4)sc3c2)c(F)c1` [Example 207, 2-((3-chloro-6-(2-fluoro-4-methylphenyl)-1-benzothiophen-2-yl)carbonyl)-2,5-diazaspiro[3.4]octan-6-one], 99%; under `Cc1cccc(-c2ccc3c(Cl)c(C(=O)N4CC5(CCC(=O)N5)C4)sc3c2)c1F` [Example 208, 2-((3-chloro-6-(2-fluoro-3-methylphenyl)-1-benzothiophen-2-yl)carbonyl)-2,5-diazaspiro[3.4]octan-6-one], 100%. Under `Cc1cc(F)ccc1-c1ccc2c(Cl)c(C(=O)N3CC4(CCC(=O)N4)C3)sc2c1` [Example 209, 2-((3-chloro-6-(4-fluoro-2-methylphenyl)-1-benzothiophen-2-yl)carbonyl)-2,5-diazaspiro[3.4]octan-6-one] stands 99%; under `Cc1cc(-c2ccc3c(Cl)c(C(=O)N4CC5(CCC(=O)N5)C4)sc3c2)ccc1F` [Example 210, 2-((3-chloro-6-(4-fluoro-3-methylphenyl)-1-benzothiophen-2-yl)carbonyl)-2,5-diazaspiro[3.4]octan-6-one], 101%. For the compound `Cc1cc(F)cc(-c2ccc3c(Cl)c(C(=O)N4CC5(CCC(=O)N5)C4)sc3c2)c1` [Example 211, 2-((3-chloro-6-(3-fluoro-5-methylphenyl)-1-benzothiophen-2-yl)carbonyl)-2,5-diazaspiro[3.4]octan-6-one], the inhibition at 10 µM was 99%. Under `O=C1CCC2(CN(C(=O)c3sc4cc(-c5cc(F)ccc5F)ccc4c3Cl)C2)N1` [Example 212, 2-((3-chloro-6-(2,5-difluorophenyl)-1-benzothiophen-2-yl)carbonyl)-2,5-diazaspiro[3.4]octan-6-one] stands 100%; under `O=C1CCC2(CN(C(=O)c3sc4cc(-c5c(F)cccc5F)ccc4c3Cl)C2)N1` [Example 213, 2-((3-chloro-6-(2,6-difluorophenyl)-1-benzothiophen-2-yl)carbonyl)-2,5-diazaspiro[3.4]octan-6-one], 100%; under `O=C1CCC2(CN(C(=O)c3sc4cc(-c5cc(F)cc(F)c5)ccc4c3Cl)C2)N1` [Example 214, 2-((3-chloro-6-(3,5-difluorophenyl)-1-benzothiophen-2-yl)carbonyl)-2,5-diazaspiro[3.4]octan-6-one], 99%. For `O=C1CCC2(CN(C(=O)c3sc4cc(-c5cccc(F)c5F)ccc4c3Cl)C2)N1` [Example 215, 2-((3-chloro-6-(2,3-difluorophenyl)-1-benzothiophen-2-yl)carbonyl)-2,5-diazaspiro[3.4]octan-6-one] the value was 99%; for `O=C1CCC2(CN(C(=O)c3sc4cc(-c5ccc(F)c(F)c5)ccc4c3Cl)C2)N1` [Example 216, 2-((3-chloro-6-(3,4-difluorophenyl)-1-benzothiophen-2-yl)carbonyl)-2,5-diazaspiro[3.4]octan-6-one], 100%; for `O=C1CCC2(CN(C(=O)c3sc4cc(-c5ccc(C6CC6)cc5)ccc4c3Cl)C2)N1` [Example 217, 2-((3-chloro-6-(4-cyclopropylphenyl)-1-benzothiophen-2-yl)carbonyl)-2,5-diazaspiro[3.4]octan-6-one], 97%. For `O=C1CCC2(CN(C(=O)c3sc4cc(-c5cccc(C6CC6)c5)ccc4c3Cl)C2)N1` [Example 218, 2-((3-chloro-6-(3-cyclopropylphenyl)-1-benzothiophen-2-yl)carbonyl)-2,5-diazaspiro[3.4]octan-6-one] the value was 100%; for `O=C1CCC2(CN(C(=O)c3sc4cc(-c5ccc(C(F)F)cc5)ccc4c3Cl)C2)N1` [Example 219, 2-((3-chloro-6-(4-(difluoromethyl)phenyl)-1-benzothiophen-2-yl)carbonyl)-2,5-diazaspiro[3.4]octan-6-one], 94%. In the case of `O=C1CCC2(CN(C(=O)c3sc4cc(-c5cccc(F)c5Cl)ccc4c3Cl)C2)N1` [Example 220, 2-((3-chloro-6-(2-chloro-3-fluorophenyl)-1-benzothiophen-2-yl)carbonyl)-2,5-diazaspiro[3.4]octan-6-one], the inhibition at 10 µM was 100%. For `O=C1CCC2(CN(C(=O)c3sc4cc(-c5c(F)cccc5Cl)ccc4c3Cl)C2)N1` [Example 221, 2-((3-chloro-6-(2-chloro-6-fluorophenyl)-1-benzothiophen-2-yl)carbonyl)-2,5-diazaspiro[3.4]octan-6-one] the value was 100%. Under `O=C1CCC2(CN(C(=O)c3sc4cc(-c5cc(Cl)ccc5F)ccc4c3Cl)C2)N1` [Example 222, 2-((3-chloro-6-(5-chloro-2-fluorophenyl)-1-benzothiophen-2-yl)carbonyl)-2,5-diazaspiro[3.4]octan-6-one] stands 99%. For `O=C1CCC2(CN(C(=O)c3sc4cc(-c5cc(F)ccc5Cl)ccc4c3Cl)C2)N1` [Example 223, 2-((3-chloro-6-(2-chloro-5-fluorophenyl)-1-benzothiophen-2-yl)carbonyl)-2,5-diaspiro[3.4]octan-6-one] the value was 100%. As for `O=C1CCC2(CN(C(=O)c3sc4cc(-c5ccc(F)cc5Cl)ccc4c3Cl)C2)N1` [Example 224, 2-((3-chloro-6-(2-chloro-4-fluorophenyl)-1-benzothiophen-2-yl)carbonyl)-2,5-diazaspiro[3.4]octan-6-one], the inhibition at 10 µM is 100%.

`O=C1CCC2(CN(C(=O)c3sc4cc(-c5ccc(Cl)cc5F)ccc4c3Cl)C2)N1` [Example 225, 2-((3-chloro-6-(4-chloro-2-fluorophenyl)-1-benzothiophen-2-yl)carbonyl)-2,5-diazaspiro[3.4]octan-6-one]: the inhibition at 10 µM was determined as 99%. For the compound `O=C1CCC2(CN(C(=O)c3sc4cc(-c5ccc(F)c(Cl)c5)ccc4c3Cl)C2)N1` [Example 226, 2-((3-chloro-6-(3-chloro-4-fluorophenyl)-1-benzothiophen-2-yl)carbonyl)-2,5-diazaspiro[3.4]octan-6-one], the inhibition at 10 µM is 99%.

On to `Cc1ccc(-c2ccc3c(Cl)c(C(=O)N4CC5(CCC(=O)N5)C4)sc3c2)cn1` [Example 227, 2-((3-chloro-6-(6-methylpyridin-3-yl)-1-benzothiophen-2-yl)carbonyl)-2,5-diazaspiro[3.4]octan-6-one], for which the inhibition at 10 µM worked out at 99%.

Take `O=C1CCC2(CN(C(=O)c3sc4cc(-c5ccc(C(F)(F)F)nc5)ccc4c3Cl)C2)N1` [Example 228, 2-((3-chloro-6-(6-(trifluoromethyl)pyridin-3-yl)-1-benzothiophen-2-yl)carbonyl)-2,5-diazaspiro[3.4]octan-6-one]: the inhibition at 10 µM came out at 87%. Under `Cc1ncccc1-c1ccc2c(Cl)c(C(=O)N3CC4(CCC(=O)N4)C3)sc2c1` [Example 229, 2-((3-chloro-6-(2-methylpyridin-3-yl)-1-benzothiophen-2-yl)carbonyl)-2,5-diazaspiro[3.4]octan-6-one] stands 100%. Under `O=C1CCC2(CN(C(=O)c3sc4cc(-c5cccnc5C(F)(F)F)ccc4c3Cl)C2)N1` [Example 230, 2-((3-chloro-6-(2-(trifluoromethyl)pyridin-3-yl)-1-benzothiophen-2-yl)carbonyl)-2,5-diazaspiro[3.4]octan-6-one] stands 100%; under `O=C1CCC2(CN(C(=O)c3sc4cc(-c5cnc(C(F)(F)F)nc5)ccc4c3Cl)C2)N1` [Example 231, 2-((3-chloro-6-(2-(trifluoromethyl)pyrimidin-5-yl)-1-benzothiophen-2-yl)carbonyl)-2,5-diazaspiro[3.4]octan-6-one], 97%.
